The record followed here is US11925632B2, “Isoquinoline derivatives for use in treating GLUT1 deficiency syndrome” (GLIAPHARM SA, priority 2019, dated 2024).

One test concerns astrocytes. Kind of test: Extracellular medium acidification (SNARF5) assay in astrocytes. In kind it is cell-based. Particulars: Mus musculus, Astrocyte, 1.5 h; astrocytes in vitro, 90 min stimulation, 10 nM to 30 μM. How it is done:
Secretion of lactate was measured indirectly through the acidification of extracellular medium using extracellular pH sensor SNARE-5F-(AND-6)-CAR (SNARF5) as described below.
Secretion of lactate was measured indirectly through the acidification of extracellular medium using extracellular pH sensor […] (SNARF5). After washing cells twice with stimulation medium (DMEM (D5030, Sigma), 1 mM […], and 5 mM Glucose, pH 7.4) at 37° C., cells were stimulated with compounds at a final concentration ranging from 10 nM to 30 μM in 50 μl per well of stimulation medium supplemented with 10 μM of SNARF5 (Life Technologies Corporation). Each compound was tested in two different plates for duplicates. After 90 min stimulation, fluorescence was read at exc. (excitation) 480 nm/emm. (emission) 580 nm and at exc 480 nm/emm. 630 nm. The ratio of fluorescence between 630 nm and 580 emission values, which is proportional to extracellular pH, was calculated. In each plate, 8 wells were used for negative controls (DMSO 0.1%) and 8 wells were used for positive controls (CCCP 2 μM in DMSO).
Table 3 below lists compounds that are active on the extracellular medium acidification (SNARF5) assay in astrocytes in vitro, which indicates their ability to produce lactate. ‘+’ indicates activity of compounds with EC50>5 μM; ‘++’ indicates activity of compounds with EC50<5 μM.
(§1) Primary cultures of cerebrocortical astrocytes were obtained from 1 to 2-day-old OF1 mouse pups (Charles River). Briefly, cortices were isolated and minced in small pieces under a dissecting microscope. The cells were incubated for 30 min at 37° C. in a solution containing 20 U/ml papain, 1 mM L-cysteine and 10 kU/ml DNase I. After dissociation, papain activity was stopped by the addition of fetal calf serum (FCS). Single-cell suspension was then obtained by mechanical dissociation, which consisted in cells trituration in a DMEM D7777 medium supplemented with 44 mm NaHCO3, 10 ml/L antibiotic/antimycotic solution and 10% FCS. The cells were seeded at an average density of ˜10′000 cells/cm^2 on poly-D-lysine coated 96- or 12-well culture plates, depending on their use, and grown in DMEM D7777 medium supplemented with 44 mm NaHCO3, 10 ml/L antibiotic/antimycotic solution and 10% FCS at 37° C. in a humidified atmosphere containing 5% CO2/95% air. Culture medium was renewed twice a week. Cells were stimulated and harvested between DIV14 and DIV17, when confluence and cell growth were optimal.

Test [1] deals with astrocytes transfected with scramble siRNA. Kind of test: Lactate secretion, scramble siRNA astrocytes. Particulars: vs vehicle. It is filed as cell-based, mouse. How it is done:
(§2) Secretion of L-lactate was measured in the extracellular medium of 96-well plated astrocytes after 90 min stimulation (at 37° C., in 5% CO2/95% air conditions) with Vehicle (DMSO), the compounds of the invention (100 nM to 100 μM) or positive control. […] Stimulation medium was composed of D5030 medium complemented with 5 mM D-glucose and 44 mM sodium bicarbonate, pH 7.2. To quantify lactate concentrations in the extracellular medium, 200 μl of a 0.2M Glycine-semicarbazide buffer (pH 10) containing 3 mM NAD and 14 U/ml LDH was added to each well of a 96-well plate containing 30 μl aliquots of extracellular medium. Samples were incubated at 37° C. for 1 h. Fluorescence intensity (340 nm excitation/450 nm emission), which represents the amount of NADH produced, was measured, and lactate concentration values were determined relative to a standard curve of L-lactate concentrations.
(§3) Scramble and GLUT1 siRNA sequences were as following:
(§4) Cells were grown in transfection medium for 3 days at 37° C. in a humidified atmosphere containing 5% CO2/95% air. After 3 days, transfection medium was replaced with DMEM D5030 supplemented with 44 mM NaHCO3 and 5 mM D-Glucose (1 ml per well).
(§5) Lactate secretion after treatment with Veh or compound of the invention (1) was measured in astrocytes transfected with scramble siRNA or GLUT1 siRNA (FIG. 4B).

Another test concerns primary mouse astrocytes. As to the kind of experiment: Extracellular lactate quantification (lactate release from primary astrocytes). It is filed as cell-based. Here is the method: as §1, §2
The release of lactate from primary mouse astrocytes treated with compound (1) at 10 μM was quantified by (FIG. 1). Accumulation of lactate in the extracellular medium was measured over a period of 1.5 h. […] Maximal effects of the compounds were 38.6% (1), 38% (2), 31% (4) and 76% (3) when compared to the effect of the positive control (100%) for compounds (1) to (4), respectively.

Test [2] concerns astrocytes transfected with scramble siRNA. Kind of test: 2-deoxyglucose (2DG) uptake, scramble siRNA astrocytes. In kind it is cell-based, mouse. Particulars: 30 min treatment, 1 or 10 μM, vs vehicle. How it is done:
Astrocytes grown on 12-well plates and transfected with either scramble siRNA or GLUT1 siRNA were used. 1 day after having replaced transfection medium (DIV13), 2DG uptake was measured after treatment for 30 min with Vehicle (0.1% DMSO) or with the compound of the invention (1) (concentrations of 1 or 10 μM). During treatment, 1 mM 2DG was added to the medium for assessment of 2DG uptake. At the end of the stimulation, medium was removed and replaced with 150 μl NaOH 0.1M, and stored at −20° C. After thawing, cells were collected using cell scraper and heated for 40 min at 85° C. Then, 150 ul HCl 0.1M and TAE buffer 200 mM was added to each condition. 20 μl were added to a transparent 96-well plate and 2DG was quantified by addition of a reaction solution containing 50 mM TAE, 50 mM KCl, 0.02% BSA, 0.1 mM NADP, 0.2 U/ml diaphorase, 2 mM resazurin and 20 U/ml glucose-6-phosphate dehydrogenase. Concentration of 2DG in samples were calculated by comparison with standard curve of deoxy-glucose-6-phosphate ranging from 0 to 1 nmoles.
as §3
Cells were grown in transfection medium for 3 days at 37° C. in a humidified atmosphere containing 5% CO2/95% air. […]
2DG uptake after treatment with Veh or compound of the invention (1) was measured in astrocytes transfected with scramble siRNA or GLUT1 siRNA (FIG. 4A).

The subject of test [3] is astrocytes transfected with GLUT1 siRNA. As to the kind of experiment: Lactate secretion, GLUT1 siRNA astrocytes (cellular model of GLUT1-DS). It is filed as cell-based, mouse. Particulars: vs vehicle. Here is the method: as §2, §3, §4, §5

“Also recorded” adds a separate entry of the source.

Turning to `COc1cc2ccnc(Nc3ccc(OC(F)(F)F)cc3)c2cc1OC` [Example 1, 6,7-dimethoxy-N-(4-(trifluoromethoxy)phenyl)isoquinolin-1-amine], the 50% effective concentration (EC50) in the test on astrocytes is over 5 µM; in the test with primary mouse astrocytes (Astrocyte, 1.5 h, primary mouse astrocytes, 90 min stimulation, read-out: EC50 of astrocyte-mediated lactate secretion), 7.02 µM. Moreover, the Lactate secretion entry in test [1] is “significantly enhances lactate secretion”; in test [3], “restored; also recorded: significantly enhances lactate secretion”. Further, the Emax in the test on primary mouse astrocytes (Mus musculus, Astrocyte, 1.5 h, positive control CCCP 2 μM, 90 min, read-out: Maximal effect on lactate secretion compared to the effect of the positive control (100%)) is 38.6%. For the same compound, the “Concentration at which effect on lactate release is already significant” value in the test with primary mouse astrocytes (primary mouse astrocytes, 90 min) was “below 1 μM”. Besides, the 2DG uptake result in test [2] is on record as “significantly enhances 2DG uptake”.

For orientation: EC50 means the concentration giving half of the maximal effect.
